One assay has as its system Spodoptela litura. The experiment in a line: Test Example 4: Spodoptela litura larvae on treated artificial diet. In kind it is in vivo. The conditions noted are these: 144 h; 500 ppm test solution, 2 mL on artificial diet Insecta LF; 5 fourth instar larvae; after 6 days; read-out: pest death rate. On the procedure: (§1) Formulations of some compounds of the present invention were obtained according to Formulation Example 5. The formulation was diluted with water to prepare a test solution having 500 ppm of the active ingredient.
A filter paper having a diameter of 5.5 cm was spread on the bottom of a polyethylene cup having a diameter of 5.5 cm. Insecta LF (manufactured by NOSAN CORPORATION), an artificial diet, was sliced to 6 mm in thickness, cut into half, and then placed on the filter paper. Then, 2 mL of the test solution was poured into the polyethylene cup. After the test solution was air-dried, 5 fourth instar larvae of Spodoptela litura were released into the polyethylene cup and the cup was sealed with a lid. After 6 days, the number of surviving or dead Spodoptela litura was counted and a pest death rate was calculated according to the following equation. Pest death rate(%)=(Number of dead larvae/Number of tested larvae)×100

The subject of a further assay is Musca domestica. The experiment in a line: Test Example 1: Musca domestica filter paper/sucrose bait test. In kind it is in vivo. To be noted: 500 ppm test solution, 0.7 ml on filter paper with sucrose bait, 10 female imagoes, after 24 hours, read-out: pest death rate. As to the method:
as §1
A filter paper having a diameter of 5.5 cm was spread on the bottom of a polyethylene cup having a diameter of 5.5 cm and 0.7 ml of the test solution was added dropwise onto the filter paper. As a bait, 30 mg of sucrose was uniformly placed on the filter paper. Into the polyethylene cup, 10 female imagoes of Musca domestica were released and the cup was sealed with a lid. After 24 hours, the number of surviving or dead Musca domestica was counted and a pest death rate was calculated according to the following equation. Pest death rate(%)=(Number of dead imagoes/Number of tested imagoes)×100

Regarding `O=C(CCCC(F)(F)F)NNc1cc(C2=NOC(c3cc(Cl)cc(Cl)c3)(C(F)(F)F)C2)ccc1Cl` (stereo not shown) [(36)], the pest or weed control at 500 ppm in the assay with Spodoptela litura was not below 80%; with Musca domestica, 100%.
`CC(C)CC(=O)NNc1cc(C2=NOC(c3cc(Cl)cc(Cl)c3)(C(F)(F)F)C2)ccc1Cl` (stereo not shown) [(15)]: in the assay on Musca domestica, the pest or weed control at 500 ppm was 100%.
In the case of `CC(C)(C)C(=O)NNc1cc(C2=NOC(c3cc(Cl)cc(Cl)c3)(C(F)(F)F)C2)ccc1Cl` (stereo not shown) [(23)], the pest or weed control at 500 ppm with Musca domestica was determined as 100%.
On to `O=C(Cc1ccccc1)NNc1cc(C2=NOC(c3cc(Cl)cc(Cl)c3)(C(F)(F)F)C2)ccc1Cl` (stereo not shown) [(26)], for which the pest or weed control at 500 ppm with Spodoptela litura is not below 80%.
Still for that read-out and setting: the result for `CC(=O)N(NC(=O)CCC(F)(F)F)c1cc(C2=NOC(c3cc(Cl)cc(Cl)c3)(C(F)(F)F)C2)ccc1Cl` (stereo not shown) [(53)] reads not below 80%; that for `COCC(=O)NN(C(=O)c1ccccc1)c1cc(C2=NOC(c3cc(Cl)cc(Cl)c3)(C(F)(F)F)C2)ccc1Cl` (stereo not shown) [(57)], not below 80%.
`O=C(CC(F)(F)F)NNc1cc(C2=NOC(c3cc(Cl)cc(Cl)c3)(C(F)(F)F)C2)ccc1F` (stereo not shown) [(10)]: the pest or weed control at 500 ppm in the assay on Musca domestica is 100%.
In the case of `O=C(CC(F)(F)F)NNc1cccc(C2=NOC(c3cc(Cl)cc(Cl)c3)(C(F)(F)F)C2)c1` (stereo not shown) [(7)], in the assay with Musca domestica, the pest or weed control at 500 ppm worked out at 100%.
Consider `O=C(CC(F)(F)F)NNc1cc(C2=NOC(c3cc(Cl)cc(Cl)c3)(C(F)(F)F)C2)ccc1Cl` (stereo not shown) [(11)], for which the pest or weed control at 500 ppm in the assay with Musca domestica was 100%.
With `CC(=O)NN(C)c1cccc(C2=NOC(c3cc(Cl)cc(Cl)c3)(C(F)(F)F)C2)c1` (stereo not shown) [(5)], the pest or weed control at 500 ppm with Spodoptela litura is not below 80%.
As for `CC(C)(CCl)C(=O)NNc1cc(C2=NOC(c3cc(Cl)cc(Cl)c3)(C(F)(F)F)C2)ccc1Cl` (stereo not shown) [(40)], the results for the pest or weed control at 500 ppm in the assay with Spodoptela litura and with Musca domestica were not below 80% and 100%, respectively.
For `CC(=O)NN(C(=O)OC(C)(C)C)c1cccc(C2=NOC(c3cc(Cl)cc(Cl)c3)(C(F)(F)F)C2)c1` (stereo not shown) [(1)], in that order: not below 80% and 100%.
In the case of `COCC(=O)NNc1cc(C2=NOC(c3cc(Cl)cc(Cl)c3)(C(F)(F)F)C2)ccc1Cl` (stereo not shown) [(38)], the pest or weed control at 500 ppm in the assay on Spodoptela litura is not below 80%; in the assay with Musca domestica, 100%.
Regarding `Cc1ccc(C2=NOC(c3cc(Cl)cc(Cl)c3)(C(F)(F)F)C2)cc1NNC(=O)CC(F)(F)F` (stereo not shown) [(8)], the pest or weed control at 500 ppm with Musca domestica is 100%.
`O=C(CCCBr)NNc1cc(C2=NOC(c3cc(Cl)cc(Cl)c3)(C(F)(F)F)C2)ccc1Cl` (stereo not shown) [(34)]: the pest or weed control at 500 ppm in the assay on Spodoptela litura is not below 80%.

For the origin of these results see US8507514B2, “Hydrazide compound and use of the same in pest control” (Sumitomo Chemical Company, Limited, priority 2009, dated 2013).
